These results are taken from patent US20250099407A1, “2-AMINO BENZOPHENONE DERIVATIVES FOR TARGETED FERROPTOSIS INDUCTION IN CANCER THERAPY” (INDIAN INSTITUTE OF TECHNOLOGY KANPUR, priority 2023, published 2025).

Molecules are shown by their SMILES.

In one assay the test system is U2OS. In words: Cell viability, CellTiter-Glo assay, U2OS. In kind it is cell-based. Particulars: Homo sapiens. How it is done:
(§1) The viability of screened cancer cells was recorded using a luminescence-based CellTiter-Glo® assay for the ATP quantification. The screening concentration of the molecule ranged from 100/10 μM to 45/4.5 nM with an 8-point-3-fold dilution series in DMEM media (>0.1% DMSO as control). Each experiment was conducted in more than two biological replicates with three technical replicates. The error bar is a representation of standard deviation among the technical replicates.
(§2) The viability of screened cancer cells was recorded using a luminescence-based CellTiter-Glo® assay for the ATP quantification. The screening concentration of IITK3002 ranged from 10 μM to 4.5 nM with an 8-point-3-fold dilution series in DMEM media (>0.1% DMSO as control). Each experiment was conducted in more than two biological replicates with three technical replicates. The error bar is a representation of standard deviation among the technical replicates.
(§3) a. […] In parallel, we have also synthesized the bromoacetamide (IITK3002) version of the lead molecules which is slightly more reactive with thiol nucleophiles when compared to chlorooacetamide warheads as depicted in FIG. 13. […] In addition, we also evaluated the molecules' antiproliferative potency against a panel of twelve different cancer phenotypes. The set of cancer cell lines included liver, breast, colon, myeloma, bone, blood, skin, brain and prostate lineages (FIG. 2, 3, Table 1).

A further assay has as its system 22Rv1. In words: Cell viability, CellTiter-Glo assay, 22Rv1. In kind it is cell-based. Conditions: Homo sapiens, 22Rv1, 22Rv1, cell viability. How it is done:
as §1, §2, §3

The next assay has as its system Huh-7 cells. Put plainly: Cell viability, luminescence-based CellTiter-Glo assay, Huh-7 cells. Conditions: Homo sapiens, Huh-7, Huh-7 cells, cell viability; read-out: EC50 Huh-7. How it is done: The viability of Huh-7 cells was recorded using a luminescence-based CellTiter-Glo® assay. The screening concentration of the molecules were 10 μM with or without Fer-1 (10 μM) in DMEM media (>0.1% DMSO as control).
Ferroptosis is a unique form of cell death mechanism mediated by the accumulation of lipid peroxides in cells which is distinct from healthy cells' apoptosis, a programmed […] route. We aimed to exploit the induction of ferroptosis in cancer cells using covalent small molecules as a potential strategy for cancer therapeutic development. […] We used various amide bond formation chemistry to construct the library members and these molecules are well characterized by various spectroscopic and mass spectrometry techniques. Once confirmed, these thiol reactive library members were screened in a cancer cell viability assay in combination with ferrostatin-1 (Fer-1), a ferroptosis inhibitor as depicted in FIG. 11. […] We have screened a total of ˜50 electrophilic small molecules to prevent the proliferation of hepatocellular carcinoma (Huh-7 cells) in combination with and without Fer-1. From our initial screening, we identified haloacetamides of 2-aminoalkylbenzophenone as potential ferroptosis inducers as depicted in FIG. 11.
as §1
The viability of screened cancer cells was recorded using a luminescence-based CellTiter-Glo® assay for the ATP quantification. The screening concentration of IITK3002 ranged from 10 μM to 4.5 nM with an 8-point-3-fold dilution series in DMEM media (>0.1% DMSO as control). Each experiment was conducted in more than two biological replicates with three technical replicates. The error bar is a representation of standard deviation among the technical replicates. […]
a. Electrophilic Warhead Optimization: Once we identified 2-benzoylphenyl-a-haloacetamide as the lead scaffold, we have investigated the structure-activity-relationship analysis to precisely capture the effect of various chemical handles of the scaffold and use the knowledge to improve the overall potency and selectivity of this molecule to prevent cancer cell proliferation. First, we changed the haloacetamide electrophilic unit with various other electrophiles with a characteristic high, moderate, and weak reactivity with thiols when compared to chloroacetamide. Therefore, we opted vinylsulfonamide (highly reactivity), acrylamide (moderate reactivity), and phenoxyacetamides (weak reactivity warheads) for incorporation in the place of haloacetamide warhead of the top hit scaffold. Once synthesized, these molecules were evaluated to assess their antiproliferative potency against Huh-7 cells (Table 2). As expected, the introduction of weakly reactive electrophilic warheads, phenoxyactamides, completely lost the activity against Huh-7 cells. […] Perhaps, the secondary interactions of the electrophilic warhead with the target proteins might play additional roles. Therefore, we shifted our focus to optimize the rest of the core scaffold for further SAR analysis. b. Role of N-Substitutions: Next, we synthesized the NH-derivative of haloacetamides to capture the importance of N-alkylation on the activity of our hit molecule. […] Perhaps the hydrogen bonding induced planarity around the warhead influences the molecules' weakened potency. Conversely, the additional flexibility in the lead molecule (tertiary amide) might contribute to the strong antiproliferative activity of the hit molecule. […]

The subject of a further assay is A549. Put plainly: Cell viability, A549. Format: cell-based. Particulars: Homo sapiens.
The next assay concerns PC3. Put plainly: Cell viability, CellTiter-Glo assay, PC3. In kind it is cell-based. Particulars: Homo sapiens, PC-3, PC3, cell viability. How it is done: as §1, §2, §3

On to `C#CCN(C(=O)COc1ccccc1)c1ccccc1C(=O)c1ccccc1` [IITK3029, N-(2-benzoylphenyl)-2-phenoxy-N-(prop-2-yn-1-yl)acetamide], for which the EC50 was over 20000 nM in the assay with U2OS; over 20 µM in the assay with 22Rv1; over 20 µM in the assay with Huh-7 cells; over 20 µM in the assay with A549; over 20 µM with PC3.

`C=CCN(C(=O)COc1ccccc1)c1ccccc1C(=O)c1ccccc1` [IITK3020, N-allyl-N-(2-benzoylphenyl)-2-phenoxyacetamide]: the EC50 with U2OS is over 20000 nM; in the assay with 22Rv1 it was over 20 µM; in the assay on A549, over 20 µM; with PC3, over 20 µM.

With `CN(C(=O)COc1ccc(C(C)(C)C)cc1)c1ccccc1C(=O)c1ccccc1` [IITK3008, N-(2-benzoylphenyl)-2-(4-(tert-butyl)phenoxy)-N-methylacetamide], the concentration giving a half-maximal response (EC50) in the assay on Huh-7 cells is over 20 µM; with PC3, 12.8 µM.

As to `O=C(CCl)Nc1ccccc1C(=O)c1ccccc1` [IITK3012, N-(2-benzoylphenyl)-2-chloroacetamide], the EC50 with U2OS is over 20000 nM; with 22Rv1 it was over 20 µM; in the assay on A549, over 20 µM; in the assay with PC3, over 20 µM.

For `O=C(c1ccccc1)c1ccccc1N(Cc1ccccc1)C(=O)COc1ccccc1` [IITK3036, N-(2-benzoylphenyl)-N-benzyl-2-phenoxyacetamide], the EC50 with U2OS was over 20000 nM; with 22Rv1 it was over 20 µM; with Huh-7 cells, over 20 µM; in the assay on A549, over 20 µM; with PC3 it was over 20 µM.

As for `C#CCOC(=O)Nc1ccc(N(C)C(=O)CBr)c(C(=O)c2ccccc2)c1` [IITK3053, prop-2-yn-1-yl (3-benzoyl-4-(2-bromo-N-methylacetamido)phenyl)carbamate], the results for the EC50 with U2OS, in the assay with Huh-7 cells and with A549 were 770 nM, 11.7 µM and 1.54 µM, respectively.

For `C=CS(=O)(=O)N(C)c1ccccc1C(=O)c1ccccc1` [IITK3011, N-(2-benzoylphenyl)-N-methylethenesulfonamide], the EC50 with U2OS was over 20000 nM; in the assay on 22Rv1 it was over 20 µM; with A549, over 20 µM; with PC3 it was over 20 µM.

For `C=CCN(C(=O)CBr)c1ccccc1C(=O)c1ccccc1` [IITK3019, N-allyl-N-(2-benzoylphenyl)-2-bromoacetamide], the EC50 with U2OS worked out at 30 nM; with A549, 0.3 µM.

For the compound `C=CCN(c1ccccc1C(=O)c1ccccc1)S(=O)(=O)C=C` [IITK3027, N-allyl-N-(2-benzoylphenyl)ethenesulfonamide], the EC50 with U2OS was determined as 1220 nM; in the assay on A549 it was 1.92 µM.

`O=C(CBr)Nc1ccccc1C(=O)c1ccccc1` [IITK3013, N-(2-benzoylphenyl)-2-bromoacetamide] gave an EC50 in the assay with U2OS of 1520 nM.

As to `C=CCN(C(=O)COc1ccc(C(C)(C)C)cc1)c1ccccc1C(=O)c1ccccc1` [IITK3023, N-allyl-N-(2-benzoylphenyl)-2-(4-(tert-butyl)phenoxy)acetamide], the EC50 with U2OS was over 100000 nM; in the assay on 22Rv1, over 20 µM; with A549, 20 µM; in the assay with PC3, over 20 µM.

In the case of `C=CCN(C(=O)C=C)c1ccccc1C(=O)c1ccccc1` [IITK3026, N-allyl-N-(2-benzoylphenyl)acrylamide], the EC50 in the assay on A549 turned out to be 32.8 µM.

Regarding `C#CCOC(=O)Nc1ccc(N(C)C(=O)CCl)c(C(=O)c2ccccc2)c1` [IITK3052, prop-2-yn-1-yl (3-benzoyl-4-(2-chloro-N-methylacetamido)phenyl)carbamate], the EC50 with U2OS came to 2920 nM; in the assay with Huh-7 cells, 32.8 µM; in the assay with A549 it was 4.18 µM.

As for `COc1ccc(-c2ccc(C(=O)c3ccccc3N(C)C(=O)CCl)cc2)cc1` [IITK3064, 2-chloro-N-(2-(4′-methoxy-[1,1′-biphenyl]-4-carbonyl)phenyl)-N-methylacetamide], the EC50 with Huh-7 cells amounted to 0.019 µM.

As for `C#CCN(C(=O)COc1ccc(C(C)(C)C)cc1)c1ccccc1C(=O)c1ccccc1` [IITK3032, N-(2-benzoylphenyl)-2-(4-(tert-butyl)phenoxy)-N-(prop-2-yn-1-yl)acetamide], the EC50 with Huh-7 cells was over 20 µM.

As to `C=CCN(C(=O)COc1c(F)c(F)c(F)c(F)c1F)c1ccccc1C(=O)c1ccccc1` [IITK3022, N-allyl-N-(2-benzoylphenyl)-2-(perfluorophenoxy)acetamide], the EC50 was found to be 1450 nM in the assay with U2OS and 3.37 µM in the assay on A549.

Take `C=CC(=O)N(C)c1ccccc1C(=O)c1ccccc1` [IITK3010, N-(2-benzoylphenyl)-N-methylacrylamide]: the EC50 is over 20000 nM in the assay on U2OS, over 20 µM in the assay with 22Rv1, over 20 µM in the assay on A549 and over 20 µM in the assay on PC3.

Take `CN(C(=O)COc1c(F)c(F)c(F)c(F)c1F)c1ccccc1C(=O)c1ccccc1` [IITK3007, N-(2-benzoylphenyl)-N-methyl-2-(perfluorophenoxy)acetamide]: in the assay with Huh-7 cells, the EC50 was over 20 µM.

On to `C=CS(=O)(=O)N(C)c1ccccc1C(=O)c1ccc(-c2ccccc2)cc1` [IITK3070, N-(2-([1,1′-biphenyl]-4-carbonyl)phenyl)-N-methylethenesulfonamide], for which the EC50 in the assay on Huh-7 cells was determined as 8.22 µM.

On to `CN(C(=O)CCl)c1ccccc1C(=O)c1ccc(-c2ccc(C=O)cc2)cc1` [IITK3058, 2-chloro-N-(2-(4′-formyl-[1,1′-biphenyl]-4-carbonyl)phenyl)-N-methylacetamide], for which, in the assay on Huh-7 cells, the EC50 came to 0.117 µM.

`C=CCN(C(=O)CCl)c1ccccc1C(=O)c1ccccc1` [IITK3018, N-allyl-N-(2-benzoylphenyl)-2-chloroacetamide]: the EC50 worked out at 600 nM in the assay on U2OS and 2.4 µM in the assay with A549.

As to `O=C(c1ccccc1)c1ccccc1N(Cc1ccccc1)C(=O)CCl` [IITK3034, N-(2-benzoylphenyl)-N-benzyl-2-chloroacetamide], the concentration for a half-maximal effect (EC50) in the assay on 22Rv1 worked out at 3.85 µM.

`CN(C(=O)CCl)c1ccccc1C(=O)c1ccc(-c2ccc(F)cc2F)cc1` [IITK3066, 2-chloro-N-(2-(2′,4′-difluoro-[1,1′-biphenyl]-4-carbonyl)phenyl)-N-methylacetamide]: the EC50 with Huh-7 cells came out at 0.00883 µM.

Consider `O=C(COc1ccccc1)Nc1ccccc1C(=O)c1ccccc1` [IITK3014, N-(2-benzoylphenyl)-2-phenoxyacetamide], for which the EC50 was over 20000 nM with U2OS and over 20 µM in the assay with Huh-7 cells.

As to `O=C(CBr)Nc1ccc([N+](=O)[O-])cc1C(=O)c1ccccc1` [IITK3051, N-(2-benzoyl-4-nitrophenyl)-2-bromoacetamide], the EC50 in the assay on U2OS is over 20000 nM; with 22Rv1, over 20 µM; with A549, over 20 µM; in the assay with PC3, over 20 µM.

`O=C(c1ccccc1)c1ccccc1N(Cc1ccccc1)C(=O)CBr` [IITK3035, N-(2-benzoylphenyl)-N-benzyl-2-bromoacetamide]: the EC50 in the assay on U2OS was 190 nM; in the assay with 22Rv1 it was 0.77 µM; with A549, 0.24 µM; with PC3, 0.53 µM.

For the compound `CN(C(=O)CBr)c1ccccc1C(=O)c1ccc(-c2cccc([N+](=O)[O-])c2)cc1` [IITK3069, 2-bromo-N-methyl-N-(2-(3′-nitro-[1,1′-biphenyl]-4-carbonyl)phenyl)acetamide], in the assay with Huh-7 cells, the EC50 was determined as 0.0035 µM.
